# Laboratory results taken from the SangsterLogP compilation.
# Experiment: method code SF-AS, from DOI: 10.1016/0021-9673(94)85294-4
row,SMILES,logP
1,CNC(=O)c1c[nH]c2ccccc12,1.25
2,CCNC(=O)c1c[nH]c2ccccc12,1.62
3,CCOC(=O)c1cc2ccccc2o1,3.05
4,COC(=O)c1cc2ccccc2[nH]1,2.78
5,CCCNC(=O)c1cc2ccccc2o1,2.65
6,CCCNC(=O)c1ccccc1,1.72
7,CNC(=O)c1cc2ccccc2o1,1.85
8,CCCNC(=O)c1cc2ccccc2[nH]1,2.8
9,CCNC(=O)c1cc2ccccc2[nH]1,2.32
10,CNC(=O)c1cc2ccccc2[nH]1,1.9
11,CCNC(=O)c1cc2ccccc2o1,2.22

# Now from value to molecule:
row,logP,SMILES
1,2.36,CCCOC(=O)c1ccoc1
2,1.63,CCCNC(=O)c1cccn1C
3,1.8,COC(=O)c1cccn1C
4,1.09,CCNC(=O)c1cccn1C
5,0.09,NC(=O)c1ccc[nH]1
6,0.71,CNC(=O)c1cccn1C
7,1.25,CCCNC(=O)c1ccc[nH]1
8,0.42,CNC(=O)c1ccc[nH]1
9,1.28,CCNC(=O)c1ccccc1
10,1.73,CCOC(=O)c1ccc[nH]1
11,0.45,Cn1cccc1C(N)=O
12,0.8,CCNC(=O)c1ccc[nH]1
13,1.54,NC(=O)c1cc2ccccc2o1
14,1.2,CCCNC(=O)c1ccoc1
15,1.61,NC(=O)c1cc2ccccc2[nH]1
16,1.1,CCCNC(=O)c1ccco1
